In ChEMBL document CHEMBL1127948, “Synthesis and in vitro cytotoxicity of diastereoisomerically modified dolastatin 15 analogues” (Bioorg Med Chem Lett, 1994):

How the values were obtained:
Jurkat = assay: In vitro growth factor-independent proliferation against human leukemia T cell line jurkat was determined; assay type: functional, cell-based
L1210 = assay: In vitro growth factor-independent proliferation against murine leukemia L1210 was determined; assay type: functional, cell-based, Mus musculus
Osteoclast-like = assay: In vitro growth factor-dependent proliferation against murine bone marrow cell was determined; assay type: functional, cell-based, Mus musculus
CTLL = assay: In vitro interleukin-2-dependent proliferation of the murine cytotoxlc T cell line (CTLL) was determined; assay type: functional, cell-based, Mus musculus
Lymphoma cell line = assay: Antiproliferative effect against human lymphoma cells was determined; (0.012 to 0.12 nM); assay type: functional, cell-based
[1] = system: Panel leukemia (Carcinoma cell lines); assay: Antiproliferative effect against continuous human leukemia cell lines and peripheral blood cells from patients with acute myeloid leukemia was determined; (0.1 to 1 nM); assay type: functional, cell-based

| Structure (SMILES) | IC50 (Jurkat) [nM] | IC50 (L1210; Mus musculus, L1210) [nM] | IC50 (Osteoclast-like; Mus musculus, Osteoclast-like) [nM] | IC50 (CTLL; Mus musculus, CTLL) [nM] | IC50 (L1210; l1210) [nM] | IC50 (Osteoclast-like; osteoclast-like) [nM] | IC50 (CTLL; ctll) [nM] | IC50 (Lymphoma cell line) [nM] | IC50 [1] [nM] |
| --- | --- | --- | --- | --- | --- | --- | --- | --- | --- |
| COC1=CC(=O)N(C(=O)[C@H](OC(=O)[C@@H]2CCCN2C(=O)[C@@H]2CCCN2C(=O)[C@H](C(C)C)N(C)C(=O)[C@@H](NC(=O)[C@H](C(C)C)N(C)C)C(C)C)C(C)C)[C@@H]1Cc1ccccc1 | 700 | 1.78 | 120 | 400 | – | – | – | – | – |
| COC1=CC(=O)N(C(=O)[C@H](OC(=O)[C@@H]2CCCN2C(=O)[C@@H]2CCCN2C(=O)[C@H](C(C)C)N(C)C(=O)[C@@H](NC(=O)[C@H](C(C)C)N(C)C)C(C)C)C(C)C)[C@H]1Cc1ccccc1 (stereo in doubt; form 1) | 10 | 0.3 | 40 | 8 | – | – | – | – | – |
| COC1=CC(=O)N(C(=O)[C@H](OC(=O)[C@@H]2CCCN2C(=O)[C@@H]2CCCN2C(=O)[C@H](C(C)C)N(C)C(=O)[C@@H](NC(=O)[C@H](C(C)C)N(C)C)C(C)C)C(C)C)[C@H]1Cc1ccccc1 (stereo in doubt; form 2) | – | – | – | – | 0.31 | 50 | 10 | – | – |
| COC1=CC(=O)N(C(=O)[C@@H](OC(=O)[C@@H]2CCCN2C(=O)[C@@H]2CCCN2C(=O)[C@H](C(C)C)N(C)C(=O)[C@@H](NC(=O)[C@H](C(C)C)N(C)C)C(C)C)C(C)C)[C@H]1Cc1ccccc1 [DOLASTATIN 15] | 5 | 0.15 | 17 | 3 | – | – | – | 0.012 | 0.1 |
